Measured values taken from patent publication US12522615B2, “Macrocyclic compounds and derivatives as EGFR inhibitors” (Boehringer Ingelheim International GmbH, priority 2019, dated 2026).

target: EGFR del19 T790M C797S (Homo sapiens, UniProt P00533, C797S/T790M, form not given); test: pEGFR assay: phosphorylation of EGFR at Tyr1068 in Ba/F3 cells (AlphaScreen Surefire); format: cell-based; conditions: 4 h
Experimental: Transduced cells were selected using puromycin. Following selection, IL-3 was withdrawn and IL-3 independent cells cultured. p-EGFR Tyr1068 was determined using the AlphaScreen Surefire pEGF Receptor (Tyr1068) Assay (PerkinElmer, TGRERS). […] Subsequently, 60.000 cells/well in 60 μL were added. Cells were incubated with compound for 4 h at 37° C. […] The mixture was incubated at room temperature with shaking (700 rpm) for 20 min. After centrifugation, 4 μL of the lysate were transferred to Proxiplates. […] Plates were shaken for 1 min (1400 rpm) and incubated for 2 h at room temperature in the dark.

Sequence of EGFR del19 T790M C797S (P00533 25-1210 T790M/C797S limits assumed, form open): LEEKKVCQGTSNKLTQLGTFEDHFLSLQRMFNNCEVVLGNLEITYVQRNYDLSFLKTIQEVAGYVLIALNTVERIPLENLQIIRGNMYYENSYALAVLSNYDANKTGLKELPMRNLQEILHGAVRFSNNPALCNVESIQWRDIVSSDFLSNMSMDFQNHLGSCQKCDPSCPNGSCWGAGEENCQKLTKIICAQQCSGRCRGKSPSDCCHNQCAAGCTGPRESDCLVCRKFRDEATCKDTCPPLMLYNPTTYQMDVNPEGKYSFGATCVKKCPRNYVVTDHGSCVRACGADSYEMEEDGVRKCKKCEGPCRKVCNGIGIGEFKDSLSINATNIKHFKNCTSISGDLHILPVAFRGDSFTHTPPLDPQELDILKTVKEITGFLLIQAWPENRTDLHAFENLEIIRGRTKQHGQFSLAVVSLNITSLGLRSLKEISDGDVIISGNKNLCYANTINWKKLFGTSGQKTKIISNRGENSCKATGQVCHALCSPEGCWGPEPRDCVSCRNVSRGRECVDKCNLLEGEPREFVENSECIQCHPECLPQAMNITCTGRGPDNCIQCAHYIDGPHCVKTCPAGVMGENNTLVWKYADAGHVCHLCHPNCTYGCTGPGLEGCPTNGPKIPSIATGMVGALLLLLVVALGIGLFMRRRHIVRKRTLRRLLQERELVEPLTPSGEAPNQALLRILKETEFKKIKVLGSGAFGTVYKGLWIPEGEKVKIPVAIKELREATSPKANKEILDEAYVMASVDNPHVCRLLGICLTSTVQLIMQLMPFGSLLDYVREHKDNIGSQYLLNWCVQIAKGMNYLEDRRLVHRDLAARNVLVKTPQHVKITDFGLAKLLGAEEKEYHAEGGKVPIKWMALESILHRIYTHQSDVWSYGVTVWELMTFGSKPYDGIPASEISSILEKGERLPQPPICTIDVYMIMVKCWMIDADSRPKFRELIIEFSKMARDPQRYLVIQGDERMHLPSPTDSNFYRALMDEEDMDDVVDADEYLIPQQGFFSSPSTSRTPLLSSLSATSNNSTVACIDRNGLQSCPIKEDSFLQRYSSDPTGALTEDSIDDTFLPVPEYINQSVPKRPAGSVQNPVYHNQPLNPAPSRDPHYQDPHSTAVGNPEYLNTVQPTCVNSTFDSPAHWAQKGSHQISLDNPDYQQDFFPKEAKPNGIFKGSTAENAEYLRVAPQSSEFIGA

IC50 | SMILES
1.2 nM | Cc1cc2cc(n1)-c1cnn(C)c1OCCCCCN1/C(=N/C2=O)Nc2ccccc21 [Compound I-001]
4.2 nM | Cc1cc2cc(n1)-c1cnn(C)c1OCCCCCCN1/C(=N/C2=O)Nc2ccccc21 [Compound I-002]
0.8 nM | Cc1cc2cc(n1)-c1cnn(C)c1OCCC[C@@H](C)CN1/C(=N/C2=O)Nc2ccccc21 [Compound I-003]
1.3 nM | C[C@@H]1CCCOc2c(cnn2C)-c2cc(cc(C#N)n2)C(=O)/N=C2\Nc3ccccc3N2C1 [Compound I-004]
4 nM | Cc1cc2cc(n1)-c1cnn(C)c1OCCC[C@@H](C)CN1/C(=N/C2=O)Nc2ccc(Br)cc21 [Compound I-005]
17 nM | Cc1cc2cc(n1)-c1cnn(C)c1OCC[C@@H]1CC[C@@H](C1)N1/C(=N/C2=O)Nc2ccccc21 [Compound I-006]
1.1 nM | Cc1cc2cc(n1)-c1cnn(C)c1OCCC[C@@H](O)CN1/C(=N/C2=O)Nc2ccccc21 [Compound I-007]
7.4 nM | Cc1cc2cc(n1)-c1cnn(C)c1OCCC[C@H](O)CN1/C(=N/C2=O)Nc2ccccc21 [Compound I-008]
1 nM | Cc1cc2cc(n1)-c1cnn(C)c1OCC[C@H](O)CCN1/C(=N/C2=O)Nc2ccccc21 [Compound I-009]
1.2 nM | Cc1cc2cc(n1)-c1cnn(C)c1OCCC(O)CCN1/C(=N/C2=O)Nc2ccccc21 (stereo not shown) [Compound I-010]
6.5 nM | Cc1cc2cc(n1)-c1cnn(C)c1OCC[C@@H](O)CCN1/C(=N/C2=O)Nc2ccccc21 [Compound I-011]
5.2 nM | Cn1ncc2c1OCCC(O)CCN1/C(=N/C(=O)c3cc(Cl)nc-2c3)Nc2ccccc21 (stereo not shown) [Compound I-012]
0.7 nM | Cc1cc2cc(n1)-c1cnn(C)c1OC[C@@H](O)C[C@@H](C)CN1/C(=N/C2=O)Nc2ccccc21 [Compound I-013]
4.2 nM | Cc1cc2cc(n1)-c1cnn(C)c1OC[C@H](O)C[C@@H](C)CN1/C(=N/C2=O)Nc2ccccc21 [Compound I-014]
0.6 nM | Cc1cc2cc(n1)-c1cnn(C)c1OCC[C@H](O)[C@@H](C)CN1/C(=N/C2=O)Nc2ccccc21 [Compound I-015]
0.8 nM | Cc1cc2cc(n1)-c1cnn(C)c1OC[C@@H](C)[C@H](O)CCN1/C(=N/C2=O)Nc2ccccc21 [Compound I-016]
8.9 nM | Cc1cc2cc(n1)-c1cnn(C)c1OC[C@@H](C)[C@@H](O)CCN1/C(=N/C2=O)Nc2ccccc21 [Compound I-017]
0.5 nM | Cc1cc2cc(n1)-c1cnn(C)c1OCCC[C@@H](C)CN1/C(=N/C2=O)Nc2ccc(OCCN3CCN(C)CC3)cc21 [Compound I-018]
0.6 nM | Cc1cc2cc(n1)-c1cnn(C)c1OCCC[C@@H](C)CN1/C(=N/C2=O)Nc2ccc(N3CCN(C)CC3)cc21 [Compound I-019]
0.6 nM | CC[C@@H]1CCCOc2c(cnn2C)-c2cc(cc(C)n2)C(=O)/N=C2\Nc3ccc(N4CCN(C)CC4)cc3N2C1 [Compound I-020]
0.8 nM | C[C@@H]1CCCOc2c(cnn2C)-c2cc(cc(Cl)n2)C(=O)/N=C2\Nc3ccc(CN4CCN(C)CC4)cc3N2C1 [Compound I-022]
0.5 nM | C[C@@H]1CCCOc2c(cnn2C)-c2cc(cc(F)n2)C(=O)/N=C2\Nc3cn(C)nc3N2C1 [Compound I-023]
0.6 nM | Cc1cc2cc(n1)-c1cnn(C)c1OCCC[C@@H](C)CN1/C(=N/C2=O)Nc2cn(C)nc21 [Compound I-024]
0.8 nM | Cc1cc2cc(n1)-c1cnn(C)c1OCCC[C@@H](C)CN1/C(=N/C2=O)Nc2cnn(C)c21 [Compound I-025]
1.5 nM | C[C@@H]1CCCOc2c(cnn2C)-c2cc(cc(Cl)n2)C(=O)/N=C2\Nc3cn(C)nc3N2C1 [Compound I-026]
3.5 nM | C[C@@H]1C[C@H](O)COc2c(cnn2C)-c2cc(cc(Cl)n2)C(=O)/N=C2\Nc3cn(C)nc3N2C1 [Compound I-028]

IC50 | SMILES
7.5 nM | C[C@@H]1CCCOc2c(cnn2C)-c2cc(cc(Cl)n2)C(=O)/N=C2\Nc3cnn(C)c3N2C1 [Compound I-029]
28 nM | Cc1cc2cc(n1)-c1cnn(C)c1OCCC(O)CCN1/C(=N/C2=O)Nc2cnn(C)c21 (stereo not shown) [Compound I-030]
0.5 nM | Cc1cc2cc(n1)-c1cnn(C)c1OC[C@@H](C)CCCN1/C(=N/C2=O)Nc2ccc(N3CCN(C)CC3)cc21 [Compound I-031]
0.6 nM | Cc1cc2cc(n1)-c1cnn(C)c1OCCC[C@@H](C)CN1/C(=N/C2=O)Nc2ccc(N3CCOCC3)cc21 [Compound I-032]
0.6 nM | Cc1cc2cc(n1)-c1cnn(C)c1OCCC[C@@H](C)CN1/C(=N/C2=O)Nc2cc(N3CCN(C)CC3)ccc21 [Compound I-033]
0.7 nM | C[C@@H]1CCCOc2c(cnn2C)-c2cc(cc(F)n2)C(=O)/N=C2\Nc3ccccc3N2C1 [Compound I-034]
0.7 nM | Cc1cc2cc(n1)-c1cnn(C)c1OCCC[C@@H](C)CN1/C(=N/C2=O)Nc2ccc(CN(C)C)cc21 [Compound I-035]
0.7 nM | C[C@@H]1CCCOc2c(cnn2C)-c2cc(ccn2)C(=O)/N=C2\Nc3cnn(C)c3N2C1 [Compound I-036]
1.3 nM | Cc1cc2cc(n1)-c1cnn(C)c1OCCC[C@@H](C)CN1/C(=N/C2=O)Nc2ccc(C(=O)N(C)C)cc21 [Compound I-038]
1.6 nM | Cc1cc2cc(n1)-c1cnn(C)c1OCCC[C@@H](C)CN1/C(=N/C2=O)Nc2ccc(C(=O)N3CCN(C)CC3)cc21 [Compound I-039]
1.7 nM | Cc1cc2cc(n1)-c1cnn(C)c1OC[C@@H](C)CCCN1/C(=N/C2=O)Nc2cnn(C)c21 [Compound I-040]
1.9 nM | COc1cccc2c1N1C[C@H](C)CCCOc3c(cnn3C)-c3cc(cc(C)n3)C(=O)/N=C/1N2 [Compound I-041]
2.3 nM | COC(=O)c1ccc2c(c1)N1C[C@H](C)CCCOc3c(cnn3C)-c3cc(cc(C)n3)C(=O)/N=C/1N2 [Compound I-042]
2.3 nM | Cc1cc2cc(n1)-c1cnn(C)c1OC[C@@H](C)CCCN1/C(=N/C2=O)Nc2cc(N3CCN(C)CC3)ccc21 [Compound I-043]
3.4 nM | C[C@@H]1CCCOc2c(cnn2C)-c2cc(ccn2)C(=O)/N=C2\Nc3cn(C)nc3N2C1 [Compound I-044]
3.6 nM | Cc1cc2cc(n1)-c1cnn(C)c1OCC[C@@H](O)[C@H](C)CN1/C(=N/C2=O)Nc2ccccc21 [Compound I-045]
6.2 nM | O=C1/N=C2\Nc3ccccc3N2CCCCCOc2ccccc2-c2cc1ccn2 [Compound I-047]
15 nM | C[C@@H]1CCOc2ccccc2-c2cc(ccn2)C(=O)/N=C2\Nc3ccccc3N2CC1 [Compound I-048]
16 nM | Cc1cc2cc(n1)-c1ccccc1OCCCCCN1/C(=N/C2=O)Nc2ccccc21 [Compound I-049]
17 nM | CC1(C)CCCOc2ccccc2-c2cc(ccn2)C(=O)/N=C2\Nc3ccccc3N2C1 [Compound I-050]
20 nM | C[C@H]1CCCOc2ccccc2-c2cc(ccn2)C(=O)/N=C2\Nc3ccccc3N2C1 [Compound I-051]
23 nM | Cc1cc2cc(n1)-c1cnn(C)c1OCCCCCCCN1/C(=N/C2=O)Nc2ccccc21 [Compound I-052]
24 nM | O=C1/N=C2\Nc3ccccc3N2CCCCCOc2cc(F)ccc2-c2cc1ccn2 [Compound I-053]
25 nM | CC1(C)CCOc2ccccc2-c2cc(ccn2)C(=O)/N=C2\Nc3ccccc3N2CC1 [Compound I-054]
66 nM | Cc1cc2cc(n1)-c1cnn(C)c1OCCCCN1/C(=N/C2=O)Nc2ccccc21 [Compound I-055]
69 nM | Cc1cc2cc(n1)-c1ccc(F)cc1OCCCCCN1/C(=N/C2=O)Nc2ccccc21 [Compound I-056]

target: EGFR (mutated) 695-1022, T790M, C797S, L858R (Homo sapiens (Human), UniProt P00533, C797S/L858R/T790M); test: Biochemical EGFR inhibition assay (poly-GT substrate phosphorylation, TR-FRET LANCE Ultra); conditions: 100 μM ATP; read-out: LR_TM_CS (100 μM ATP)
Experimental: (§1) Initially, the inhibitory effect of compounds according to the invention is measured in biochemical assays which measure the phosphorylation activity of EGFR enzyme forms on poly-GT substrate in the presence of different concentrations of ATP (5 μM and 100 μM final assay concentration).
(§2) The following enzyme forms of EGFR are representative examples that can be used in these assays at the given concentrations:
(§3) For the chosen highest assay concentration of 100 μM, 150 nL of compound solution is transferred from a 10 mM DMSO compound stock solution. A series of eleven fivefold dilutions per compound is transferred to the assay plate, compound dilutions are tested in duplicates. DMSO is added as backfill to a total volume of 150 nL. The assay runs on a fully automated robotic system.
(§4) 5 μL of EGFR enzyme form in assay buffer (50 mM HEPES pH 7.3, 10 mM MgCl2, 1 mM EGTA, 0.01% Tween 20, 2 mM DTT) are dispensed into columns 1-23, than 5 μL of ATP and ULight-poly-GT substrate (PerkinElmer; TRF0100-M) mix in assay buffer is added to all wells (final assay concentration of the ULight-poly-GT substrate 200 nM). Each of the different EGFR enzyme form assays is available at low ATP (final assay concentration 5 μM) and high ATP levels (final assay concentration 100 μM). After 90 minutes incubation at room temperature 5 μL EDTA (final assay concentration 50 mM) and LANCE Eu-anti-P-Tyr (PT66) antibody (PerkinElmer, AD0069) (final assay concentration 6 nM) mix are added to stop the reaction and start the binding of the antibody. […] Each plate contains 16 wells of a negative control (diluted DMSO instead of test compound; w EGFR enzyme form; column 23) and 16 wells of a positive control (diluted DMSO instead of test compound; w/o EGFR enzyme form; column 24). Negative and positive control values are used for normalization and IC50 values are calculated and analysed using a 4 parametric logistic model.
(§5) These biochemical EGFR enzyme form compound dose-response assays quantify the kinase activity via phosphorylation of a tagged poly-GT substrate. The results of the assay are provided as IC50 values.

Sequence of EGFR (mutated) 695-1022, T790M, C797S, L858R (P00533 695-1022 T790M/C797S/L858R): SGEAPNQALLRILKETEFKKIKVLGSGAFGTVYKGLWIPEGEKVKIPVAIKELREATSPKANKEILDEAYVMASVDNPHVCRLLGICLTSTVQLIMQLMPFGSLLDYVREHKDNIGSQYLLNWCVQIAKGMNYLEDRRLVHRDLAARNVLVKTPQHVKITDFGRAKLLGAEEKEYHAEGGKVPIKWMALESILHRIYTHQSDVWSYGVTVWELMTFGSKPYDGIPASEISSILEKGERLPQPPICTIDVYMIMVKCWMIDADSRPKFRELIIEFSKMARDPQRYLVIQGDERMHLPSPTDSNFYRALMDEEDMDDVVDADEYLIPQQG

IC50 | SMILES
6 nM | Cc1cc2cc(n1)-c1cnn(C)c1OCCCCCN1/C(=N/C2=O)Nc2ccccc21 [Compound I-001]
3 nM | Cc1cc2cc(n1)-c1cnn(C)c1OCCC[C@@H](C)CN1/C(=N/C2=O)Nc2ccccc21 [Compound I-003]
16 nM | Cc1cc2cc(n1)-c1cnn(C)c1OCCC[C@@H](C)CN1/C(=N/C2=O)Nc2ccc(Br)cc21 [Compound I-005]

target: EGFR wt (Homo sapiens (Human), UniProt P00533); test: as above; conditions: 100 μM ATP; read-out: wt (100 μM ATP)
Experimental: as §1, §2, §3, §4, §5

Sequence of EGFR wt (P00533 25-1210): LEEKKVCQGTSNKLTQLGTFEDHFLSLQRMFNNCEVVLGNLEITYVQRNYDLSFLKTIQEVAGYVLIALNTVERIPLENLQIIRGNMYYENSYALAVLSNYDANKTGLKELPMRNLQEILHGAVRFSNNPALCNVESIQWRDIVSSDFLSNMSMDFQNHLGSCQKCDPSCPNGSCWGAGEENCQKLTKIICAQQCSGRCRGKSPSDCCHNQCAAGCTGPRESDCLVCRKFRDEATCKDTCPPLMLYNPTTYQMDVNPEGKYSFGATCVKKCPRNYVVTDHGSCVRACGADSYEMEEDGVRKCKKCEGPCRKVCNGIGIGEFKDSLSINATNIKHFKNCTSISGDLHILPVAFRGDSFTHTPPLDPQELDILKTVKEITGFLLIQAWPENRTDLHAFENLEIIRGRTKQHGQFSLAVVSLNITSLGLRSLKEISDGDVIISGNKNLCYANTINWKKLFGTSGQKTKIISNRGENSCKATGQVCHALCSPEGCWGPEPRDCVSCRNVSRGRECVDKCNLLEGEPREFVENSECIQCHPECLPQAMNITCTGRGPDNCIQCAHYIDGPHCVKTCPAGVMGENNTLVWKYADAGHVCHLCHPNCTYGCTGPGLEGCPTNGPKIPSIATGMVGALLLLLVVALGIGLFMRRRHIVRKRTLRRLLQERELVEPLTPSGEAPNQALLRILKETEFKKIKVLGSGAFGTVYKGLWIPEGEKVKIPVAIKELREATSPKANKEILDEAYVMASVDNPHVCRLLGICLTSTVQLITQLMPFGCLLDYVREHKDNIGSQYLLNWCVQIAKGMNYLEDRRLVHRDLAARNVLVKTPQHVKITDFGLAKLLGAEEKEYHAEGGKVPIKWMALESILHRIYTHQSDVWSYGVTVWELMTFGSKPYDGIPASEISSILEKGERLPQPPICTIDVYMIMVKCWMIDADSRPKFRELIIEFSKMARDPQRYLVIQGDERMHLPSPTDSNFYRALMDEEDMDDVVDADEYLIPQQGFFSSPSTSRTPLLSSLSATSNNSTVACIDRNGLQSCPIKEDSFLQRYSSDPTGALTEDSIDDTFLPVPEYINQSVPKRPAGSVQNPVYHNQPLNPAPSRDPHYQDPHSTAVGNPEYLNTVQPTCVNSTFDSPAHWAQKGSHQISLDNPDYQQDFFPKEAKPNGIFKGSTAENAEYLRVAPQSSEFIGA

IC50 | SMILES
> 100000 nM | Cc1cc2cc(n1)-c1cnn(C)c1OCCCCCN1/C(=N/C2=O)Nc2ccccc21 [Compound I-001]
900 nM | Cc1cc2cc(n1)-c1cnn(C)c1OCCC[C@@H](C)CN1/C(=N/C2=O)Nc2ccccc21 [Compound I-003]
> 100000 nM | Cc1cc2cc(n1)-c1cnn(C)c1OCCC[C@@H](C)CN1/C(=N/C2=O)Nc2ccc(Br)cc21 [Compound I-005]
